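96-well plates; 48 h exposure; 5 concentrations. Endpoints by linear interpolation between flanking doses. Not reached: highest tested concentration assigned. TGI denotes the concentration required for complete inhibition of growth.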
How the values were obtained:
Experiment in all cases: inhibition of tumour cell growth, NCI panel, 48 h
[1] = tested on: 786-0 renal
[2] = tested on: A498 renal
[3] = tested on: A549 NSCLC
[4] = tested on: ACHN renal
[5] = tested on: CAKI-1 renal
[6] = tested on: COLO 205 colon
[7] = tested on: DLD-1 colon
[8] = tested on: DMS 114 small cell lung
[9] = tested on: DMS 273 small cell lung
[10] = tested on: EKVX NSCLC
[11] = tested on: HCC-2998 colon
[12] = tested on: HCT-116 colon
[13] = tested on: HCT-15 colon
[14] = tested on: HL-60(TB) leukemia
[15] = tested on: HOP-18 NSCLC
[16] = tested on: HOP-62 NSCLC
[17] = tested on: HOP-92 NSCLC
[18] = tested on: HT29 colon
[19] = tested on: IGROV1 ovarian
[20] = tested on: K-562 leukemia
[21] = tested on: KM12 colon
[22] = tested on: KM20L2 colon
[23] = tested on: LOX IMVI melanoma
[24] = tested on: LXFL 529 NSCLC
[25] = tested on: M14 melanoma
[26] = tested on: M19-MEL melanoma
[27] = tested on: MALME-3M melanoma
[28] = tested on: MOLT-4 leukemia
[29] = tested on: NCI-H226 lung
[30] = tested on: NCI-H23 lung
[31] = tested on: NCI-H460 lung
[32] = tested on: NCI-H522 lung
[33] = tested on: OVCAR-3 ovarian
[34] = tested on: OVCAR-4 ovarian
[35] = tested on: OVCAR-5 ovarian
[36] = tested on: OVCAR-8 ovarian
[37] = tested on: RXF 393 renal
[38] = tested on: RXF-631 renal
[39] = tested on: SF-268 CNS
[40] = tested on: SF-295 CNS
[41] = tested on: SF-539 CNS
[42] = tested on: SK-MEL-28 melanoma
[43] = tested on: SK-MEL-5 melanoma
[44] = tested on: SK-OV-3 ovarian
[45] = tested on: SN12C renal
[46] = tested on: SNB-19 CNS
[47] = tested on: SNB-75 CNS
[48] = tested on: SNB-78 CNS
[49] = tested on: SR leukemia
[50] = tested on: SW-620 colon
[51] = tested on: TK-10 renal
[52] = tested on: U251 CNS
[53] = tested on: UACC-257 melanoma
[54] = tested on: UACC-62 melanoma
[55] = tested on: UO-31 renal
[56] = tested on: XF 498 CNS
[57] = tested on: CCRF-CEM leukemia
[58] = tested on: RPMI-8226 leukemia
[59] = tested on: SK-MEL-2 melanoma

## Cc1cc(NS(=O)(=O)c2ccc(NC(=O)c3ccc(Cl)c4c(Nc5ccc(S(N)(=O)=O)cc5)c5ccccc5nc34)cc2)no1
[1]
  TGI: 34.8 µM
[2]
  TGI: 49.9 µM
[3]
  TGI: > 100 µM
[4]
  TGI: 73.8 µM
[5]
  TGI: 40.5 µM
[6]
  TGI: 34.3 µM
[7]
  TGI: 52.4 µM
[8]
  TGI: 39.7 µM
[9]
  TGI: 47.4 µM
[10]
  TGI: 89.1 µM
[11]
  TGI: 33.2 µM
[12]
  TGI: 30.8 µM
[13]
  TGI: > 100 µM
[14]
  TGI: 65.6 µM
[15]
  TGI: 83 µM
[16]
  TGI: 41.1 µM
[17]
  TGI: 39.2 µM
[18]
  TGI: 44.7 µM
[19]
  TGI: 44.2 µM
[20]
  TGI: > 100 µM
[21]
  TGI: 37.8 µM
[22]
  TGI: 56.6 µM
[23]
  TGI: 29.7 µM
[24]
  TGI: 31.4 µM
[25]
  TGI: 65.7 µM
[26]
  TGI: 38.4 µM
[27]
  TGI: 29.3 µM
[28]
  TGI: 56.6 µM
[29]
  TGI: 46 µM
[30]
  TGI: 49.3 µM
[31]
  TGI: 83.1 µM
[32]
  TGI: 23.7 µM
[33]
  TGI: 37.7 µM
[34]
  TGI: 47 µM
[35]
  TGI: 56.7 µM
[36]
  TGI: 36.6 µM
[37]
  TGI: 31.3 µM
[38]
  TGI: 50.2 µM
[39]
  TGI: 40.8 µM
[40]
  TGI: 70 µM
[41]
  TGI: 39.2 µM
[42]
  TGI: 42.3 µM
[43]
  TGI: 33.9 µM
[44]
  TGI: 59.2 µM
[45]
  TGI: 58.6 µM
[46]
  TGI: 30.2 µM
[47]
  TGI: 42.6 µM
[48]
  TGI: > 100 µM
[49]
  TGI: 56.9 µM
[50]
  TGI: 38.9 µM
[51]
  TGI: 86.2 µM
[52]
  TGI: 27 µM
[53]
  TGI: 50.9 µM
[54]
  TGI: 25.2 µM
[55]
  TGI: 69.8 µM
[56]
  TGI: 36 µM

## O=C1CCC[C@]2(CCCC(=O)N2)C1
[1]
  TGI: > 100 µM
[2]
  TGI: > 100 µM
[3]
  TGI: > 100 µM
[4]
  TGI: > 100 µM
[5]
  TGI: > 100 µM
[57]
  TGI: > 100 µM
[6]
  TGI: > 100 µM
[7]
  TGI: > 100 µM
[8]
  TGI: > 100 µM
[9]
  TGI: > 100 µM
[10]
  TGI: > 100 µM
[11]
  TGI: > 100 µM
[12]
  TGI: > 100 µM
[13]
  TGI: > 100 µM
[14]
  TGI: > 100 µM
[15]
  TGI: > 100 µM
[16]
  TGI: > 100 µM
[17]
  TGI: > 100 µM
[18]
  TGI: > 100 µM
[19]
  TGI: > 100 µM
[20]
  TGI: > 100 µM
[21]
  TGI: > 100 µM
[22]
  TGI: > 100 µM
[23]
  TGI: > 100 µM
[24]
  TGI: > 100 µM
[25]
  TGI: > 100 µM
[26]
  TGI: > 100 µM
[27]
  TGI: > 100 µM
[28]
  TGI: > 100 µM
[29]
  TGI: > 100 µM
[30]
  TGI: > 100 µM
[31]
  TGI: > 100 µM
[32]
  TGI: > 100 µM
[33]
  TGI: > 100 µM
[34]
  TGI: > 100 µM
[35]
  TGI: > 100 µM
[36]
  TGI: > 100 µM
[58]
  TGI: > 100 µM
[37]
  TGI: > 100 µM
[38]
  TGI: > 100 µM
[39]
  TGI: > 100 µM
[40]
  TGI: > 100 µM
[41]
  TGI: > 100 µM
[59]
  TGI: > 100 µM
[42]
  TGI: > 100 µM
[43]
  TGI: > 100 µM
[44]
  TGI: > 100 µM
[45]
  TGI: > 100 µM
[46]
  TGI: > 100 µM
[47]
  TGI: > 100 µM
[48]
  TGI: > 100 µM
[49]
  TGI: > 100 µM
[50]
  TGI: > 100 µM
[51]
  TGI: > 100 µM
[52]
  TGI: > 100 µM
[53]
  TGI: > 100 µM
[54]
  TGI: > 100 µM
[55]
  TGI: > 100 µM
[56]
  TGI: > 100 µM

## O=C(O)CCC(=O)N1C/C(=C\c2ccccc2)C(=O)/C(=C/c2ccccc2)C1
[1]
  TGI: 5.75 µM
[2]
  TGI: 27.3 µM
[3]
  TGI: 34.5 µM
[4]
  TGI: 4 µM
[5]
  TGI: 14.9 µM
[57]
  TGI: 9.93 µM
[6]
  TGI: 11.3 µM
[7]
  TGI: 5.06 µM
[8]
  TGI: 4.73 µM
[9]
  TGI: 4.97 µM
[10]
  TGI: 15.9 µM
[11]
  TGI: 4.53 µM
[12]
  TGI: 3.16 µM
[13]
  TGI: 4.8 µM
[14]
  TGI: 4.59 µM
[15]
  TGI: 16.1 µM
[16]
  TGI: 31.3 µM
[17]
  TGI: 30.8 µM
[18]
  TGI: 4.65 µM
[19]
  TGI: 12.7 µM
[20]
  TGI: > 24.6 µM
[21]
  TGI: 3.34 µM
[22]
  TGI: 9.89 µM
[23]
  TGI: 3.36 µM
[24]
  TGI: 7.17 µM
[25]
  TGI: 5.39 µM
[26]
  TGI: 3.47 µM
[27]
  TGI: 5.52 µM
[28]
  TGI: 8.22 µM
[29]
  TGI: 34.3 µM
[30]
  TGI: 12.7 µM
[31]
  TGI: 25.2 µM
[32]
  TGI: 3.38 µM
[33]
  TGI: 5.93 µM
[34]
  TGI: 4.86 µM
[35]
  TGI: 28.3 µM
[36]
  TGI: 8.24 µM
[58]
  TGI: 19.9 µM
[37]
  TGI: 12.7 µM
[38]
  TGI: 11.2 µM
[39]
  TGI: 5.5 µM
[40]
  TGI: 6.03 µM
[41]
  TGI: 3.85 µM
[59]
  TGI: 4 µM
[42]
  TGI: 3.55 µM
[43]
  TGI: 6.9 µM
[44]
  TGI: 25.3 µM
[45]
  TGI: 3.52 µM
[46]
  TGI: 13.8 µM
[47]
  TGI: 19.1 µM
[48]
  TGI: 31.4 µM
[49]
  TGI: 3.96 µM
[50]
  TGI: 3.77 µM
[51]
  TGI: 21.2 µM
[52]
  TGI: 3.29 µM
[53]
  TGI: 6.53 µM
[54]
  TGI: 2.63 µM
[55]
  TGI: 33 µM
[56]
  TGI: 6.56 µM

Source: PubChem BioAssay (NCI)
